The record followed here is patent US20100016379A1, “Terephthalamate Compounds and Compositions, and Their Use as HIV Integrase Inhibitors” (IRM LLC, priority 2006, published 2010).

The structures appear in SMILES notation. Where two headings read alike, the source gives them in different places.

A short description of series [1]: cytotoxicity assay (Screen 3). The series is classed as cell-based. As to conditions: human, HE 293T cells. The source says:
Screen 3: A cytotoxicity assay, to determine inhibitory activity against HE 293T cells.

Another series has as its system HIV. Nature of the series: cell-based HIV luciferase reporter infection assay (Screen 1). As to conditions: for EC50: Human immunodeficiency virus 1, read-out: HIV Activity EC50. The procedure:
HIV therapeutic agents inhibit propagation of HIV in cells, and as such cell-based assays of HIV antiviral activity have been developed. For example, Pauwels et al, Nature (1990) 343: 470-4 describe incubating HIV infected cells with test compounds and subsequently determining cell viability via colorimetric methods, to give an EC50 for the inhibition of HIV-1 replication.
Screen 1: A high throughput cell-based HIV luciferase reporter infection assay (see He et al, Bioorg. Med. Chem. Lett. (2006) 16) that identifies inhibitors of early HIV infection events. The results are shown in Table 2 below, expressed as EC50 (μM), the molar concentration that produces 50% of the maximal possible response.
(In general: A reporter such as luciferase makes a cellular process visible.)

The target of another series is T1, HIV-1 integrase (Human immunodeficiency virus type 1 group M subtype B, UniProt P04585).
T1 construct: An HIV-1 integrase strand transfer assay
As to the kind of experiment: HIV-1 integrase strand transfer assay (Screen 2). The series is classed as biochemical. The source says:
Screen 2: An HIV-1 integrase strand transfer assay, (see Wang et al, J. Biomol. Screen. (2005) 10: 456), that identifies anti-HIV activity due to inhibition of HIV integrase.

Series [2] has as its system NNRTI resistant mutant K103N. As to the kind of experiment: Inhibition of NNRTI resistant mutants, K103N. The class given is cell-based, HIV. As to conditions: Human immunodeficiency virus 1, read-out: Inhibition of NNRTI resistant mutants (EC50) K103N. How it is done: (§1) Select compounds are assayed against key NNRTI resistant mutants.
Series [3] deals with NNRTI resistant mutant Y188L. Nature of the series: Inhibition of NNRTI resistant mutants, Y188L. The series is classed as cell-based, HIV. The note with it: Human immunodeficiency virus 1, read-out: Inhibition of NNRTI resistant mutants (EC50) Y188L. The procedure: as §1
Series [4] relates to NNRTI resistant mutant Y181C. As to the kind of experiment: Inhibition of NNRTI resistant mutants, Y181C. The series is classed as cell-based, HIV. As to conditions: Human immunodeficiency virus 1, read-out: Inhibition of NNRTI resistant mutants (EC50) Y181C. How it is done:
as §1

For a further series, the system named is WT. Nature of the series: Inhibition of NNRTI resistant mutants, WT. The series is classed as cell-based, HIV. The note with it: Human immunodeficiency virus 1, read-out: Inhibition of NNRTI resistant mutants (EC50) WT. The procedure: as §1
The test system of series [5] is NNRTI resistant mutant L100I. As to the kind of experiment: Inhibition of NNRTI resistant mutants, L100I. The class given is cell-based, HIV. As to conditions: Human immunodeficiency virus 1, read-out: Inhibition of NNRTI resistant mutants (EC50) L100I. How it is done: as §1
The mark [6] stands for this setting: strand transfer assay, read-out: Integrase Activity IC50.

`COC(=O)c1ccc(C(=O)NCc2ccc(OC)cc2)c(O)c1O` [Compound 9, methyl 4-(4-methoxybenzylcarbamoyl)-2,3-dihydroxybenzoate] displayed a 50% cytotoxic concentration (CC50) in series [1] of more than 2000 nM. For the same compound, in the series on HIV, the EC50 was 500 to 2000 nM. For the same compound, the half-inhibitory concentration (IC50) on HIV-1 integrase (setting [6]) was less than 50 nM.

In turn, `COC(=O)c1ccc(C(=O)N(C)Cc2ccccc2)c(O)c1O` [Compound 19, methyl 4-(N-benzyl-N-methylcarbamoyl)-2,3-dihydroxybenzoate] yielded a cytotoxic concentration (CC50) in series [1] of more than 2000 nM. Besides, the EC50 in the series on HIV is more than 2000 nM. The IC50 at HIV-1 integrase (setting [6]) was more than 2000 nM.

For the compound `COC(=O)c1ccc(C(=O)NCc2ccccc2[N+](=O)[O-])c(O)c1O` [Compound 10, methyl 4-(2-nitrobenzylcarbamoyl)-2,3-dihydroxybenzoate], the EC50 in series [2] is less than 50 nM; in the series with HIV, 50 to 500 nM; in series [3], 50 to 500 nM; in series [4], 50 to 500 nM; with WT, 50 to 500 nM; in series [5], less than 50 nM. Also, the CC50 in series [1] lay in the range of 500 to 2000 nM. Further, the half-maximal inhibitory concentration (IC50) at HIV-1 integrase (setting [6]) was less than 50 nM.

On to `COC(=O)c1ccc(C(=O)NCc2cccc([N+](=O)[O-])c2)c(O)c1O` [Compound 11, methyl 4-(3-nitrobenzylcarbamoyl)-2,3-dihydroxybenzoate], for which the concentration for a half-maximal effect (EC50) in series [2] was less than 50 nM; with HIV, less than 50 nM; in series [3], less than 50 nM; in series [4], 50 to 500 nM; with WT, less than 50 nM; in series [5], less than 50 nM. Also, the 50% cytotoxic concentration (CC50) in series [1] was 500 to 2000 nM. Besides, the half-maximal inhibitory concentration (IC50) on HIV-1 integrase (setting [6]) is less than 50 nM.

With `O=C(NCc1ccccc1)c1cccnc1O` [Compound 6, N-benzyl-2-hydroxypyridine-3-carboxamide], the CC50 in series [1] is more than 2000 nM. Moreover, the EC50 in the series on HIV is more than 2000 nM.

On to `O=C(NCc1ccccc1)c1cccc(O)c1O` [Compound 2, N-benzyl-2,3-dihydroxybenzamide], for which the CC50 in series [1] was more than 2000 nM. Further, the EC50 with HIV is more than 2000 nM.

For the compound `COC(=O)c1ccc(C(=O)NCc2ccccc2OC)c(O)c1O` [Compound 7, methyl 4-(2-methoxybenzylcarbamoyl)-2,3-dihydroxybenzoate], the EC50 is less than 50 nM in series [2]; less than 50 nM in the series on HIV; 50 to 500 nM in series [3]; 50 to 500 nM in series [4]; less than 50 nM in the series on WT; less than 50 nM in series [5]. In addition, in series [1], the CC50 lay in the range of 500 to 2000 nM. In addition, the IC50 on HIV-1 integrase (setting [6]) was less than 50 nM.

In series [1], `COC(=O)c1ccc(C(=O)NCc2ccc(C(F)(F)F)cc2)c(O)c1O` [Compound 15, methyl 4-(4-(trifluoromethyl)benzylcarbamoyl)-2,3-dihydroxybenzoate] displayed a 50% cytotoxic concentration (CC50) of 500 to 2000 nM. In addition, in the series on HIV, the half-maximal effective concentration (EC50) lay within 500 to 2000 nM. Also, the IC50 on HIV-1 integrase (setting [6]) lay in the range of 500 to 2000 nM.

In turn, `O=C(NCc1ccccc1)c1cccc(O)c1` [Compound 3, N-benzyl-3-hydroxybenzamide] displayed a CC50 in series [1] of more than 2000 nM. The concentration for a half-maximal effect (EC50) with HIV was more than 2000 nM.

In series [1], `COC(=O)c1ccc(C(=O)NCc2ccncc2)c(O)c1O` [Compound 18, methyl 4-((pyridin-4-yl)methylcarbamoyl)-2,3-dihydroxybenzoate] had a 50% cytotoxic concentration (CC50) of more than 2000 nM. Also, the EC50 in the series with HIV fell in the range of 50 to 500 nM. Moreover, the IC50 at HIV-1 integrase (setting [6]) fell in the range of 50 to 500 nM.

Turning to `CC(C)Oc1ccc(Cc2ccccc2)cc1C(=O)CC(=O)C(=O)O` [DKA, reference compound], the concentration giving a half-maximal response (EC50) in series [2] is less than 50 nM; in the series with HIV it was 50 to 500 nM; in series [3], 50 to 500 nM; in series [4], 50 to 500 nM; in the series with WT, 50 to 500 nM; in series [5] it was 50 to 500 nM. Besides, in series [1], the CC50 is more than 2000 nM. At HIV-1 integrase (setting [6]), the IC50 fell in the range of 50 to 500 nM.

With `COC(=O)c1ccc(C(=O)NCc2ccccc2C(F)(F)F)c(O)c1O` [Compound 13, methyl 4-(2-(trifluoromethyl)benzylcarbamoyl)-2,3-dihydroxybenzoate], the cytotoxic concentration (CC50) in series [1] was in the range of 500 to 2000 nM. For the same compound, in the series on HIV, the 50% effective concentration (EC50) lay within 50 to 500 nM. Moreover, at HIV-1 integrase (setting [6]), the IC50 fell in the range of 50 to 500 nM.

In the case of `COC(=O)c1ccc2c(=O)n(Cc3ccccc3)c(=O)oc2c1O` [Compound 21, 3-benzyl-8-hydroxy-2,4-dioxo-3,4-dihydro-2H-benzo[e][1,3]oxazine-7-carboxylic acid methyl ester], the EC50 (in series [2]; in the series on HIV; in series [3]; in series [4]; in the series with WT; in series [5]) was 50 to 500 nM each time. The 50% cytotoxic concentration (CC50) in series [1] is more than 2000 nM. Besides, the “activity in the cellular assay” value in the series with HIV (result in words) was “maintains activity”. The compound further gave a concentration for half-maximal inhibition (IC50) at HIV-1 integrase of 50 to 500 nM. In addition, the “activity in the enzymatic assay” value at HIV-1 integrase (result in words) is “maintains activity”.

In turn, `O=C(NCc1ccccc1)c1ccccc1O` [Compound 4, N-benzyl-2-hydroxybenzamide] showed a CC50 in series [1] of more than 2000 nM. Besides, the EC50 in the series with HIV was more than 2000 nM.

On to `COC(=O)c1ccc(C(=O)NCc2ccccn2)c(O)c1O` [Compound 16, methyl 4-((pyridin-2-yl)methylcarbamoyl)-2,3-dihydroxybenzoate], for which the EC50 (in series [2]; in the series with HIV; in series [3]; in series [4]; in the series with WT; in series [5]) was 50 to 500 nM throughout. For the same compound, the CC50 in series [1] was more than 2000 nM. Moreover, at HIV-1 integrase (setting [6]), the IC50 lay in the range of 50 to 500 nM.

Compound `COC(=O)c1ccc(C(=O)NCc2ccc([N+](=O)[O-])cc2)c(O)c1O` [Compound 12, methyl 4-(4-nitrobenzylcarbamoyl)-2,3-dihydroxybenzoate] returned a CC50 in series [1] of 500 to 2000 nM. Moreover, in the series on HIV, the half-maximal effective concentration (EC50) lay in the range of 50 to 500 nM. Besides, the IC50 on HIV-1 integrase (setting [6]) lay in the range of 50 to 500 nM.

On to `O=C(NCc1ccccc1)c1cccc(O)n1` [Compound 5, N-benzyl-6-hydroxypyridine-2-carboxamide], for which the 50% cytotoxic concentration (CC50) in series [1] is more than 2000 nM. The EC50 in the series with HIV was more than 2000 nM.

Take `COC(=O)c1ccc(C(=O)NCc2ccccc2)c(O)c1O` [Compound 1, methyl 4-(benzylcarbamoyl)-2,3-dihydroxybenzoate]: the 50% cytotoxic concentration (CC50) in series [1] was more than 2000 nM. The EC50 with HIV lay in the range of 50 to 500 nM. Moreover, the 50% inhibitory concentration (IC50) at HIV-1 integrase was in the range of 50 to 500 nM.

Take `COC(=O)c1ccc(C(=O)NCc2cccc(OC)c2)c(O)c1O` [Compound 8, methyl 4-(3-methoxybenzylcarbamoyl)-2,3-dihydroxybenzoate]: the half-maximal effective concentration (EC50) (in series [2]; in the series on HIV; in series [3]; in series [4]; in the series with WT; in series [5]) was 50 to 500 nM throughout. The same compound came in with a CC50 in series [1] of more than 2000 nM. The half-inhibitory concentration (IC50) at HIV-1 integrase (setting [6]) is less than 50 nM.

Turning to `Cc1ccnc2c1NC(=O)c1cccnc1N2C1CC1` [NVP, Nevirapine, reference compound], the concentration for a half-maximal effect (EC50) was more than 2000 nM in series [2]; 50 to 500 nM in the series with HIV; more than 2000 nM in series [3]; more than 2000 nM in series [4]; 50 to 500 nM in the series on WT; 50 to 500 nM in series [5]. In series [1], the CC50 is more than 2000 nM.

Compound `COC(=O)c1ccc(C(=O)NCc2cccnc2)c(O)c1O` [Compound 17, methyl 4-((pyridin-3-yl)methylcarbamoyl)-2,3-dihydroxybenzoate] came in with a CC50 in series [1] of more than 2000 nM. The EC50 in the series on HIV fell in the range of 50 to 500 nM. Moreover, the IC50 at HIV-1 integrase (setting [6]) fell in the range of 50 to 500 nM.

Regarding `COC(=O)c1ccc(C(=O)Nc2ccccc2)c(O)c1O` [Compound 20, methyl 4-(phenylcarbamoyl)-2,3-dihydroxybenzoate], the EC50 (in series [2]; with HIV; in series [3]; in series [4]; with WT; in series [5]) was less than 50 nM each time. In series [1], the half-maximal cytotoxic concentration (CC50) lay within 500 to 2000 nM. The IC50 on HIV-1 integrase (setting [6]) was less than 50 nM.

For the compound `COC(=O)c1ccc(C(=O)NCc2cccc(C(F)(F)F)c2)c(O)c1O` [Compound 14, methyl 4-(3-(trifluoromethyl)benzylcarbamoyl)-2,3-dihydroxybenzoate], in series [1], the CC50 lay within 500 to 2000 nM. The EC50 in the series on HIV fell in the range of 500 to 2000 nM. In addition, the concentration for half-maximal inhibition (IC50) on HIV-1 integrase (setting [6]) lay in the range of 50 to 500 nM.

What is called CC50 is the concentration that lowers cell viability or growth by half. A lower CC50 goes with greater toxicity to the cells. One may read the EC50 as the concentration that produces a half-maximal response. Usually IC50 stands for the midpoint of a concentration-inhibition curve.
